Laboratory results reported in ChEMBL document CHEMBL5291721, “A preclinical secondary pharmacology resource illuminates target-adverse drug reaction associations of marketed drugs” (Nat Commun, 2023).

Experiments:
D(3) dopamine receptor = D(3) dopamine receptor (Homo sapiens, UniProt P35462)
[1] = biological target: Beta-2 adrenergic receptor (Homo sapiens, UniProt P07550)
[2] = biological target: 5-hydroxytryptamine receptor 2A (Homo sapiens, UniProt P28223); assay type: functional, cell-based
5-hydroxytryptamine receptor 2A, sequence (P28223 whole entry): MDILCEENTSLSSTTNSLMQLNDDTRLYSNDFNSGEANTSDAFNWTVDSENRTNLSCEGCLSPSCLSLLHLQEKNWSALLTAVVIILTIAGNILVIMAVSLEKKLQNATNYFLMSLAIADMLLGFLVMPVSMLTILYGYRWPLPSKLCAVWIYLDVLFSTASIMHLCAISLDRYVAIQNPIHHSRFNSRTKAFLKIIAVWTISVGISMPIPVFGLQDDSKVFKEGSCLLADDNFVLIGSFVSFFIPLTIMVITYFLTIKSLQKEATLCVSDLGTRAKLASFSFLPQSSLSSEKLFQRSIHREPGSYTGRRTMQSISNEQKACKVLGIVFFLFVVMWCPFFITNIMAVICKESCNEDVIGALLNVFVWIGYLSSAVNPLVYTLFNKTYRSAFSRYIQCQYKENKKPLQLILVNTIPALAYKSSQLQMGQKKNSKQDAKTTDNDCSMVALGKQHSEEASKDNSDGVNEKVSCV

Mu-type opioid receptor = Mu-type opioid receptor (Homo sapiens, UniProt P35372); test: biochemical; assay type: functional
Mu-type opioid receptor, sequence (P35372 whole entry): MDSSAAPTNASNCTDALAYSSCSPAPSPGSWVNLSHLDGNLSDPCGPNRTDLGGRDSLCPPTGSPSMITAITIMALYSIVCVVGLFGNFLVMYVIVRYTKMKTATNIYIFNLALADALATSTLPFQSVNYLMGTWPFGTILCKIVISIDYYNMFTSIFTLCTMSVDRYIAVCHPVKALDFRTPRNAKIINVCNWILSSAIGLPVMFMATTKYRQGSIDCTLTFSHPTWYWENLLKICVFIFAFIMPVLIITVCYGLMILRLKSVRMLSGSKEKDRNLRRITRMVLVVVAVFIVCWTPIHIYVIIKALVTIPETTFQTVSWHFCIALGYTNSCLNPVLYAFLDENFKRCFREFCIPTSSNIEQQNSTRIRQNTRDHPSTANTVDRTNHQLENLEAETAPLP

[3] = biological target: Gamma-aminobutyric acid receptor subunit alpha-1 (Rattus norvegicus, UniProt P62813); assay type: functional
Gamma-aminobutyric acid receptor subunit alpha-1, sequence (P62813 whole entry): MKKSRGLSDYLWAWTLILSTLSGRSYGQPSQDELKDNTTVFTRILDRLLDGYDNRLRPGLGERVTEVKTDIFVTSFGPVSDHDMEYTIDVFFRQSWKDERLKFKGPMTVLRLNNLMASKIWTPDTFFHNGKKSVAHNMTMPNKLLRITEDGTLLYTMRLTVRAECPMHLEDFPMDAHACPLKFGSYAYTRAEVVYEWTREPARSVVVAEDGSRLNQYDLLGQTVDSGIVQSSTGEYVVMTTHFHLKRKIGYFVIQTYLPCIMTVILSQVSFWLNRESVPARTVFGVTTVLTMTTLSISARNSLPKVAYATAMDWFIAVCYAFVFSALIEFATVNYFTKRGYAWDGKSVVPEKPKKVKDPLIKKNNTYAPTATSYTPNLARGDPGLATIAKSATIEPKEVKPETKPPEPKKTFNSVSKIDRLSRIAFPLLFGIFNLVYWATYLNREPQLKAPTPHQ

[4] = biological target: Sodium-dependent serotonin transporter (Homo sapiens, UniProt P31645)
Sodium-dependent serotonin transporter, sequence (P31645 whole entry): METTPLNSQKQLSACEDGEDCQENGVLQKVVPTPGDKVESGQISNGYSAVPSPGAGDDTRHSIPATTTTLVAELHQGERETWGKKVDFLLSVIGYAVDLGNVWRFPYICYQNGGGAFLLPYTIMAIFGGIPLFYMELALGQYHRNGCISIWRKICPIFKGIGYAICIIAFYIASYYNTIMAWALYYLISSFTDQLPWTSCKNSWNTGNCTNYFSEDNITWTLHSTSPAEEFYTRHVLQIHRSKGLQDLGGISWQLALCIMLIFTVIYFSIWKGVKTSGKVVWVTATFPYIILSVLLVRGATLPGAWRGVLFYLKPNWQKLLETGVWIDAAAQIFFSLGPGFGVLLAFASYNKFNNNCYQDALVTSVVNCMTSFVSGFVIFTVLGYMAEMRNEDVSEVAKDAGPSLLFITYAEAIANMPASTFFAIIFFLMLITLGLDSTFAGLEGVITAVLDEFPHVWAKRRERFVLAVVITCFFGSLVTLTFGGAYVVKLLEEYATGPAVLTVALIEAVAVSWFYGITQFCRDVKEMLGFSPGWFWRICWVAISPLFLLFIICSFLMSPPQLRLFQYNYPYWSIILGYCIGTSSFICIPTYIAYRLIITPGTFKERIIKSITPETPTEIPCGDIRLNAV

[5] = biological target: T1, Alpha-1A adrenergic receptor (Homo sapiens, UniProt P35348); assay type: functional, cell-based
T1 sequence (P35348 whole entry): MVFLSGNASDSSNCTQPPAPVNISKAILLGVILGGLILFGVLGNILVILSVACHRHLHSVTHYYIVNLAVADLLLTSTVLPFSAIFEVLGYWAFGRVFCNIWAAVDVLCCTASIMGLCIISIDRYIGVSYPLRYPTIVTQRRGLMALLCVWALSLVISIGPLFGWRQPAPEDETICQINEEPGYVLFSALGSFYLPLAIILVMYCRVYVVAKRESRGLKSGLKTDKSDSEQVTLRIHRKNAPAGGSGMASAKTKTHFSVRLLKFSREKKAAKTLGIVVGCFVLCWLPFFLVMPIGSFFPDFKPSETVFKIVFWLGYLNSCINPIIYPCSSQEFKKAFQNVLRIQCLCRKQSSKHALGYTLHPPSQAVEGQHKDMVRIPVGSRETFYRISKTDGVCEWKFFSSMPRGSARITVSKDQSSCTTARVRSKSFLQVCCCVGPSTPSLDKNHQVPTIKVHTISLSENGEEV

[6] = biological target: Beta-1 adrenergic receptor (Homo sapiens, UniProt P08588); assay type: functional
Beta-1 adrenergic receptor, sequence (P08588 whole entry): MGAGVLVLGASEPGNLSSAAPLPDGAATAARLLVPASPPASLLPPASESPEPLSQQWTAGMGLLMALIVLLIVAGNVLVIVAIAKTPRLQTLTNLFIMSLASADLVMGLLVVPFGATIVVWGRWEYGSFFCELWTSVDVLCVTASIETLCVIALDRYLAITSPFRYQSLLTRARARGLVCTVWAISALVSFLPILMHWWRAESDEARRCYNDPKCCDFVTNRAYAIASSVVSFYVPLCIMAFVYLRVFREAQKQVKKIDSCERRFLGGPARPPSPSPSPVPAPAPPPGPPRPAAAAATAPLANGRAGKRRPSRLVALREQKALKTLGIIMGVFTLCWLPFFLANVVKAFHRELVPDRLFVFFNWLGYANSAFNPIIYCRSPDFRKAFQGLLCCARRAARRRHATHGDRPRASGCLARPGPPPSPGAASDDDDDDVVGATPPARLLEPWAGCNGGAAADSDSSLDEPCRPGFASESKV

[7] = biological target: T2, Equilibrative nucleoside transporter 1 (Homo sapiens, UniProt Q99808)
T2 sequence (Q99808 whole entry): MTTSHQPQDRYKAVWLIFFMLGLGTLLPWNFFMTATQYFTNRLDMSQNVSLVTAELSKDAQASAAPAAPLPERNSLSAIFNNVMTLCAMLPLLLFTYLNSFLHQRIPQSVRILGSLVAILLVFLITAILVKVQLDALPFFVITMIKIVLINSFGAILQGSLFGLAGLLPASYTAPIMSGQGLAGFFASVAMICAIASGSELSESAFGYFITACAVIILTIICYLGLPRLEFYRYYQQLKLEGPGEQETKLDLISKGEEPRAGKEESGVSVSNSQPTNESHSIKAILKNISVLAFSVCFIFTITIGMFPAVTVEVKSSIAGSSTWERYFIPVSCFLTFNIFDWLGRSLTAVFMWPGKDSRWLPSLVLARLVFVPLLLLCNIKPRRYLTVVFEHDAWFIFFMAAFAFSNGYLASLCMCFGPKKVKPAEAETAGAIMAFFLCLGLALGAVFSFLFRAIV

Melanocortin receptor 3 = Melanocortin receptor 3 (Homo sapiens, UniProt P41968)
Melanocortin receptor 3, sequence (P41968 whole entry): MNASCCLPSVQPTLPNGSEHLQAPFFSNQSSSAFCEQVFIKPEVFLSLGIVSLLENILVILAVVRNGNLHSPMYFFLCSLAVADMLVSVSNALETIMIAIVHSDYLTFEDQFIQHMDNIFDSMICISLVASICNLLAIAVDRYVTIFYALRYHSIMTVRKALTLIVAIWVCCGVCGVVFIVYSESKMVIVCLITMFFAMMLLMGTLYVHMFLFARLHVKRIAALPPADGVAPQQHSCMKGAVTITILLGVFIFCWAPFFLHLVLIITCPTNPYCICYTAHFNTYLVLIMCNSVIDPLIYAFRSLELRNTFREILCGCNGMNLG

[8] = biological target: Muscarinic acetylcholine receptor M3 (Homo sapiens, UniProt P20309)
Muscarinic acetylcholine receptor M3, sequence (P20309 whole entry): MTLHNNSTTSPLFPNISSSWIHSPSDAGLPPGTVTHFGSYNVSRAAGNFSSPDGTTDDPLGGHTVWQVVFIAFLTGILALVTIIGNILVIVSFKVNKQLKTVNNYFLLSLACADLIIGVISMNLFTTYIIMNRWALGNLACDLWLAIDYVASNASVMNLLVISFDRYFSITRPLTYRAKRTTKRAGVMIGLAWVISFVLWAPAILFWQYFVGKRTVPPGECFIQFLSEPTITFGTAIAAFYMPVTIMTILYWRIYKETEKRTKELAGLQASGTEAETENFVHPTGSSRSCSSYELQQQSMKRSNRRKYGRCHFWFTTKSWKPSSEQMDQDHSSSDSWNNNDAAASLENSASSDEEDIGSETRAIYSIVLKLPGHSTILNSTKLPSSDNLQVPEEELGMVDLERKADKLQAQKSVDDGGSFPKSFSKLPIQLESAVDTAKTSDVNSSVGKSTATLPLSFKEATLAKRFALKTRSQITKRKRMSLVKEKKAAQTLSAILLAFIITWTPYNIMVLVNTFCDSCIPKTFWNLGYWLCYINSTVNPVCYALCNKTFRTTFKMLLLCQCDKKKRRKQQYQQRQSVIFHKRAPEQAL

[9] = biological target: T3, Cholecystokinin receptor type A (Homo sapiens, UniProt P32238)
T3 sequence (P32238 whole entry): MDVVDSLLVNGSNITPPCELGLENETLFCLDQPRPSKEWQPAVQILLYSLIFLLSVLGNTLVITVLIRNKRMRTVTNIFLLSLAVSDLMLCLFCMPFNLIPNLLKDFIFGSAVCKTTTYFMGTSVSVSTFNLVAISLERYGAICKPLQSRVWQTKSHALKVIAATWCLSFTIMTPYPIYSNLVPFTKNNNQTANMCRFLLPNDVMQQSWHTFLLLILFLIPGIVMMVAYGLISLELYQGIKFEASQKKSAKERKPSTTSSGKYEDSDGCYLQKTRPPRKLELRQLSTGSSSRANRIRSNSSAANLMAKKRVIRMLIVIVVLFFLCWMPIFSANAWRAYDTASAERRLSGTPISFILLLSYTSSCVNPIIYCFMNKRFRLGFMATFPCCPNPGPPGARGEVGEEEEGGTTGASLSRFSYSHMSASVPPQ

[10] = biological target: Glutamate receptor ionotropic, NMDA 1 (Rattus norvegicus, UniProt P35439)
[11] = biological target: Voltage-gated inwardly rectifying potassium channel KCNH2 (Homo sapiens, UniProt Q12809); assay type: functional; conditions: read-out: AC50
Voltage-gated inwardly rectifying potassium channel KCNH2, sequence (Q12809 whole entry): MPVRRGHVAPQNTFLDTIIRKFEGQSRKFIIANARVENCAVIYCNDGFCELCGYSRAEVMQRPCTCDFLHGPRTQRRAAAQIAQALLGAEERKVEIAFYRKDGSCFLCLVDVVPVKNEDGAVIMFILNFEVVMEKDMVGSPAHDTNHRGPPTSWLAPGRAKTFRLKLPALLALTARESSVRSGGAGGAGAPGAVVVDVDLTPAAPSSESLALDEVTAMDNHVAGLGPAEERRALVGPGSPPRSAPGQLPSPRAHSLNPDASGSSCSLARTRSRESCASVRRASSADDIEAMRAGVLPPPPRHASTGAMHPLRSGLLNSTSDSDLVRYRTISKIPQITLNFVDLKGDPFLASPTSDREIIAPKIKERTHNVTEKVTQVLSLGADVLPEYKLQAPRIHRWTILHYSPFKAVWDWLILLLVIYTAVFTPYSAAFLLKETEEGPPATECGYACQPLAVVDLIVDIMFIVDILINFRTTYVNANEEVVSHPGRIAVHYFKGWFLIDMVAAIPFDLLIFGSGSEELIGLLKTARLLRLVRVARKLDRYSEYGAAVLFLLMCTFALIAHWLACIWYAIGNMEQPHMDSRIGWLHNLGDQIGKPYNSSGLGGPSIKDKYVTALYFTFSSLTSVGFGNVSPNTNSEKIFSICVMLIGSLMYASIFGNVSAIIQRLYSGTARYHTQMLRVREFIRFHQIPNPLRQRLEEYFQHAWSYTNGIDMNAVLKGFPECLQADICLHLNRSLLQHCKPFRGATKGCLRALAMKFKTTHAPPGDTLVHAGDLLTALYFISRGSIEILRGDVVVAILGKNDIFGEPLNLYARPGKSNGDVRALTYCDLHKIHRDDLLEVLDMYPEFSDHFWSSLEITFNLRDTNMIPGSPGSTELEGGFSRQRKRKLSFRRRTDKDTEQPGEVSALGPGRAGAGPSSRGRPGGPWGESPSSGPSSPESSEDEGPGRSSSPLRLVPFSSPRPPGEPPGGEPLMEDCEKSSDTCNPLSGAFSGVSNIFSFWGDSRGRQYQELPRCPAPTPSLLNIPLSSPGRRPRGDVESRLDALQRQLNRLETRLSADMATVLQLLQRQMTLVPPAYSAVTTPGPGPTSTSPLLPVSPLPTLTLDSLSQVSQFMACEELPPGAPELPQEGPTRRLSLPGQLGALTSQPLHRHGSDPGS

[12] = biological target: T4, Muscarinic acetylcholine receptor M2 (Homo sapiens, UniProt P08172); assay type: functional, cell-based
T4 sequence (P08172 whole entry): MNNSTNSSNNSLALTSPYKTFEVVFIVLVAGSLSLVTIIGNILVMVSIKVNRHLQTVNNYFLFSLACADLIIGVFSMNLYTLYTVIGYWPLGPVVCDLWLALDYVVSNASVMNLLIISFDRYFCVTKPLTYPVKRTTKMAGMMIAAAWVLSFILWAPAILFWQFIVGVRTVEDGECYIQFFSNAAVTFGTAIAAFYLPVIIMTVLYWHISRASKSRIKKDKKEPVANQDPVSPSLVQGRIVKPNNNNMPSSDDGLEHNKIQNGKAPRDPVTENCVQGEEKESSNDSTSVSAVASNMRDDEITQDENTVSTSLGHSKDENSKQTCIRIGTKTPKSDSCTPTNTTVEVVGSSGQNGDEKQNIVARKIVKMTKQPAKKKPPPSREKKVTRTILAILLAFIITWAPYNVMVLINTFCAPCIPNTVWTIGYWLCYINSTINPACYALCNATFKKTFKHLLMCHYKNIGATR
Further: assay procedure not described here.

Beta-2 adrenergic receptor, sequence (P07550 whole entry): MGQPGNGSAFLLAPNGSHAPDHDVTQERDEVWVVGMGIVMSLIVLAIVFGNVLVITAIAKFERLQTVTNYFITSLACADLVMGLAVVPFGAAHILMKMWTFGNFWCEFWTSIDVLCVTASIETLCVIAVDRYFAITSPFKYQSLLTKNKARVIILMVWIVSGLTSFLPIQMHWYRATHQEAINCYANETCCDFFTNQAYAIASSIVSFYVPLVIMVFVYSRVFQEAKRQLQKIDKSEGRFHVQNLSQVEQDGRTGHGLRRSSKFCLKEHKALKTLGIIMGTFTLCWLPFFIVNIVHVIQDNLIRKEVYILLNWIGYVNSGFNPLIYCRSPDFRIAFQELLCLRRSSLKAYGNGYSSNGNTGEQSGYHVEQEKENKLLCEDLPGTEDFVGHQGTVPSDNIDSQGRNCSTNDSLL

| SMILES | AC50 (D(3) dopamine receptor) | AC50 [1] | AC50 [2] | AC50 (Mu-type opioid receptor) | AC50 [3] | AC50 [4] | AC50 [5] | AC50 [6] | AC50 [7] | AC50 (Melanocortin receptor 3) | AC50 [8] | AC50 [9] | AC50 [10] | AC50 [11] | AC50 [12] |
| --- | --- | --- | --- | --- | --- | --- | --- | --- | --- | --- | --- | --- | --- | --- | --- |
| C1=Cc2cccc(OCC3CNCCO3)c2C1 (centres undefined) [INDELOXAZINE] | > 30 µM | > 30 µM | 17 µM | > 30 µM | > 30 µM | 0.047 µM | > 30 µM | > 30 µM | > 30 µM | > 30 µM | > 30 µM | > 30 µM | > 30 µM | > 30 µM | > 30 µM |
| COC(=O)C1=C(C)NC(C)=C(C(=O)OC(C)C)C1c1cccc2nonc12 (centres undefined) [ISRADIPINE] | > 30 µM | > 10 µM | > 10 µM | > 30 µM | > 10 µM | > 30 µM | > 30 µM | > 10 µM | > 30 µM | > 30 µM | > 30 µM | > 30 µM | > 10 µM | > 30 µM | > 10 µM |
| C[C@H]1C[C@@H]2[C@H]([C@@H](O)C[C@@]3(C)[C@H]2CC[C@]3(O)C(=O)COC(=O)CCC(=O)O)[C@@]2(C)C=CC(=O)C=C12 [METHYLPREDNISOLONE HEMISUCCINATE] | > 30 µM | – | > 30 µM | > 30 µM | > 30 µM | > 30 µM | > 30 µM | > 30 µM | > 30 µM | > 30 µM | > 30 µM | > 30 µM | > 30 µM | > 30 µM | > 30 µM |
| CCCCC(C)(O)C/C=C/[C@H]1[C@H](O)CC(=O)[C@@H]1CCCCCCC(=O)OC (some centres undefined) [MISOPROSTOL] | > 30 µM | – | > 30 µM | > 30 µM | > 30 µM | > 30 µM | > 30 µM | > 30 µM | > 30 µM | > 30 µM | > 30 µM | > 30 µM | > 30 µM | > 30 µM | > 30 µM |
| CCCCCCC(C)(C)c1cc(O)c2c(c1)OC(C)(C)C1CCC(=O)CC21 (centres undefined) [NABILONE] | > 30 µM | – | > 30 µM | > 30 µM | > 30 µM | > 30 µM | > 30 µM | > 30 µM | > 30 µM | > 30 µM | > 30 µM | > 30 µM | > 30 µM | > 30 µM | > 30 µM |
| COc1ccc(C(=O)N2CCN(c3ccc4c(c3)CCC(=O)N4)CC2)cc1OC [VESNARINONE] | > 30 µM | > 30 µM | > 30 µM | > 30 µM | > 30 µM | 21 µM | > 30 µM | > 30 µM | – | > 30 µM | > 30 µM | > 30 µM | > 30 µM | > 30 µM | > 30 µM |
| Cc1ccc(-c2nc3ccc(C)cn3c2CC(=O)N(C)C)cc1 [ZOLPIDEM] | > 30 µM | > 30 µM | > 30 µM | > 30 µM | – | > 30 µM | > 30 µM | > 30 µM | > 30 µM | > 30 µM | > 30 µM | > 30 µM | > 30 µM | – | > 30 µM |
